Experimental data published in PMC8959576 (Frontiers in Immunology, 2022).

Columns and labels:
TLR2 = details: cited from earlier work
Source text: In recent years, a variety of lipopeptides have been designed and synthesized to exert adjuvant effects through activating TLR2 ([18]–[20]). […] The TLR2 activity of FSL-1 can reach 4 times that of MALP-2, while Pam2CSK4 is the ...

[1] = cited from earlier work
Source text: A number of studies have shown that lipopeptides have a significant mucosal adjuvant effect ([36]–[38]). MALP-2, the mycoplasma-derived lipopeptide, elevated the level of sIgA in BALF and vaginal lavages when intranasal co-administration with a soluble antigen ([25]).

RBD-ACE2 interaction = assay: SARS-CoV-2 neutralizing antibody detection (ELISA) after rRBD immunization; details: for rRBD-induced SARS-CoV-2 neutralizing antibody in sera (inhibition of RBD-ACE2 interaction): n=5, compared with rRBD alone group, Figures 9A, B
Description: For SARS-CoV-2 recombinant RBD (rRBD) immunization, mice were intranasally immunized at two-week intervals with PBS, rRBD, rRBD plus LP1-34, rRBD plus LP2-2 or rRBD plus Pam2CSK4. Two weeks post the final immunization, mice were sacrificed and sera, saliva, stomach homogenates, intestinal lavage fluid and vaginal wash were collected for further analysis.
SARS-CoV-2 neutralizing antibody detection was performed according to the manufacturer’s instruction (zybio). Briefly, the diluted sera, BALF or nasal wash mixed with HRP-conjugated RBD were added into the hACE2-coated plate, and then the plate was incubated at 37°C for 1h. After washing the plate, the TMB substrate was added and incubated at 37°C for 10min. Finally, the reaction was ended by adding the stop solution and the absorbance was measured with a micro-plate reader (Thermo Scientific) at 450 nm.

BALB/c mice [2] = assay: Intranasal immunization with OVA plus lipopeptide, specific antibody ELISA; details: for serum OVA-specific IgG2a levels / serum OVA-specific IgG response compared with Pam2CSK4: intranasal OVA plus lipopeptide; for serum OVA-specific IgG2a levels: n=5, Figure 4H; for serum OVA-specific IgA / serum OVA-specific IgG: intranasal OVA (10 μg) plus lipopeptide, day 0, 14, 28, sera 14 days after final immunization, compared with OVA alone; for serum OVA-specific IgA / serum OVA-specific IgG / serum OVA-specific IgG response compared with Pam2CSK4 / vaginal OVA-specific IgG compared with Pam2CSK4: n=5; for OVA-specific sIgA in BALF compared with Pam2CSK4: n=5, Figures 5J, K; for vaginal OVA-specific IgG compared with Pam2CSK4: vaginal wash, only adjuvanted with LP2-2 reached significance
Description: (§2) For OVA immunization, mice were divided into 7 groups randomly. Mice were the mice were anesthetized with pentobarbital sodium (50 mg/kg) and then intranasally immunized with PBS, OVA (10 μg), OVA (10 μg) plus one of the following lipopeptides: LP1-30, LP1-34, LP2-2 and LP2-3 or OVA plus Pam2CSK4 on day 0, 14, 28. […] For SARS-CoV-2 recombinant RBD (rRBD) immunization, mice were intranasally immunized at two-week intervals with PBS, rRBD, rRBD plus LP1-34, rRBD plus LP2-2 or rRBD plus Pam2CSK4. Two weeks post the final immunization, mice were sacrificed and sera, saliva, stomach homogenates, intestinal lavage fluid and vaginal wash were collected for further analysis.
(§3) Specific IgG and sIgA levels were determined by standard indirect ELISA. 96-well flat bottom plates were coated with OVA or rRBD and incubated overnight at 4°C. After blocking with 5% BSA in PBST, the diluted samples were added into the plates and incubated at 37°C for 1h. HRP-conjugated goat anti-mouse IgG, IgG1, IgG2a or IgA was used as a secondary antibody. TMB substrate solution was added each well and incubated about 5-10 min. Then, the reaction was ended by adding stop solution. Finally, the optical density was detected by at 450nm in a micro-plate reader (Thermo Scientific).

SARS-CoV-2 pseudovirus = details: in vivo
BALB/c mice [3] = type: in vivo, mouse; details: splenic lymphocytes, 10 μg/mL peptide, 48 h, n=5, Figure 6
BALB/c mice [4] = assay: Intranasal immunization with SARS-CoV-2 rRBD plus lipopeptide, specific antibody ELISA; details: for RBD-specific serum IgG / RBD-specific serum IgA: intranasal rRBD with or without lipopeptide; for RBD-specific serum IgG: n=5, Figure 8A; for RBD-specific serum IgA: n=5, Figure 8B; for RBD-specific serum IgG1 compared with rRBD alone group: n=5, Figure 8C
Description: as §2, §3

[5] = biological target: T1, HEK-Blue mTLR2 cells (TLR2) (Mus musculus, UniProt Q9QUN7); assay: TLR2 signaling assay (SEAP activity, HEK-Blue detection); type: cell-based; details: 14 h at 37°C, read at 620 nm, n=3, Figure 2A
T1 construct: host or cells: HEK-Blue mTLR2 cells (HEK293-derived reporter line)
T1 sequence (Q9QUN7 25-784): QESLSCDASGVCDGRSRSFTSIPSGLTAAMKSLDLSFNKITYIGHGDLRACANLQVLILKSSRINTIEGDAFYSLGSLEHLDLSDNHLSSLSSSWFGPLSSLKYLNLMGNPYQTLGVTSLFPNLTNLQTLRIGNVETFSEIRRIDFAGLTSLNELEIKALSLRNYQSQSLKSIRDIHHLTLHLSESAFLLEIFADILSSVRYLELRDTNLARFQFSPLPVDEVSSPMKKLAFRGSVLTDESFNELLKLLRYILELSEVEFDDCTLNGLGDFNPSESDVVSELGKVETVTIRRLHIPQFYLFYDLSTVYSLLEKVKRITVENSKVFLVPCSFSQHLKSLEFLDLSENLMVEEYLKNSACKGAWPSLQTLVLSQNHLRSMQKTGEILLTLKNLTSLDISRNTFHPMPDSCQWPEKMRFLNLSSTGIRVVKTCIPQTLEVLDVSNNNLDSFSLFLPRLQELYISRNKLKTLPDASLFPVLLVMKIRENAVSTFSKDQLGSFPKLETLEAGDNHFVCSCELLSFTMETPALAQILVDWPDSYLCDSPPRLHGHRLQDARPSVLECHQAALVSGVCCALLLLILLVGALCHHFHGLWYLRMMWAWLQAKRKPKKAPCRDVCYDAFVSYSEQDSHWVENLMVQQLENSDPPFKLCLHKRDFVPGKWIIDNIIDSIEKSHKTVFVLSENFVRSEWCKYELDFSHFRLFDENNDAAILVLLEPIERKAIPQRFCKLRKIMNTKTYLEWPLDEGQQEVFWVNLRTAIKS
Description: HEK-Blue™ detection was prepared according to manufacturer’s instruction. Briefly, the lipopeptides were added into a flat-bottom 96-well plate (20μL per well) and endotoxin-free water was used as a negative control. Then HEK-Blue™ mTLR2 cells were suspended in HEK-Blue™ detection and added into the plate (180μL per well, 5×10^4 cells). After incubation at 37°C for 14h, the SEAP activity was measured by a spectrophotometer at 620nm.

BMDCs [6] = assay: Cytokines assay (ELISA of BMDC supernatants); type: cell-based, mouse; details: lipopeptide 1 μg/mL, 48 h, n=3, Figure 3G
Description: (§1) Bone marrow-derived dendritic cells (BMDCs) were isolated using methods described previously ([26], [27]). Briefly, the cells were obtained by flushing the femurs of female BALB/C mice, then differentiated in RPMI 1640 medium containing 10% FBS and supplemented with IL-4 (10ng/mL) and GM-CSF (10ng/mL) for 7 days at 37°C in 5% CO2.
BMDCs (4 × 10^6 cells/well in 4mL RMPI-1640 medium) were stimulated with either synthetic lipopeptide (1 μg/mL) or PBS for 48 h. The expressions of IL-1β, TNF-α and IL-12 were analyzed by ELISA kit according to the manufacturer’s instructions.

BMDCs [7] = assay: Cell viability assay (MTT); type: cell-based, mouse; details: test concentrations 10-200μg/mL, 48 h, n=3, Figure S3A
Description: The cell viability was analyzed by MTT assay. Briefly, BMDCs were cultured with gradient dilutions of each lipopeptide for 48 h. After that, 20 μL of a MTT solution (5 mg/ml) were added per well and incubated at 37°C for 4 h. Then, the mixture was removed from the well and 100 μL DMSO were added. The absorbance was detected at a wavelength of 570 nm. % surviving cells = Mean optical absorption of cells exposed to the lipopeptide/Mean optical absorption of control cells × 100.
as §1

BMDCs [8] = assay: BMDC maturation surface markers by flow cytometry; type: cell-based, mouse; details: BMDCs stimulated 2 days, FACS, Figures 3A-D
Description: as §1
BMDCs were collected after being treated with each lipopeptidet for 48h. The expressions of surface markers on BMDCs were detected by FCM with a FACS Canto II (BD Biosciences). The cells were stained with CD11c-FITC (Biolegend, 117306), CD86-PerCP (Biolegend, 105026), CD80-APC (Biolegend, 104714) and CD40-PE (Biolegend, 124610) at 4°C for 30min. After washing with PBS, the expression of costimulatory molecules was detected by flow cytometer.

Row | Substance | rRBD-induced SARS-CoV-2 neutralizing antibody in sera (inhibition of RBD-ACE2 interaction) (RBD-ACE2 interaction) | serum OVA-specific IgG2a levels (BALB/c mice [2]) | SARS-CoV-2 pseudovirus neutralizing antibody titers in serum (SARS-CoV-2 pseudovirus) | RBD-specific serum IgG (BALB/c mice [4]) | RBD-specific serum IgA (BALB/c mice [4]) | RBD-specific serum IgG1 compared with rRBD alone group (BALB/c mice [4]) | RBD-specific serum IgG2a compared with rRBD alone group (BALB/c mice [4]; n=5, Figure 8D) | SEAP activity compared with Pam2CSK4 [5] | serum OVA-specific IgA (BALB/c mice [2]) | serum OVA-specific IgG (BALB/c mice [2]) | vaginal OVA-specific IgG compared with Pam2CSK4 (BALB/c mice [2]) | also measured
1 | FSL-1 |  |  |  |  |  |  |  |  |  |  |  | TLR2 activity of FSL-1 relative to that of MALP-2 (TLR2): 4 times; EV71-specific IgG and IgA in serum, nasal washes, BALF, and feces compared with the control group ([1]; intranasal, inactivated EV71 vaccine plus FSL-1): higher level
2 | FSL-2 |  |  |  |  |  |  |  |  |  |  |  | TLR2 activity of FSL-2 relative to that of FSL-1 (TLR2): 80%
3 | MALP-2 |  |  |  |  |  |  |  |  |  |  |  | sIgA in BALF and vaginal lavages ([1]; intranasal co-administration with a soluble antigen): elevated
4 | Pam2CSK4 [reference compound] | significantly elevated | elevated | significantly augment | significantly improved | significantly improved | elevated | elevated |  |  |  |  | TLR2 agonist potency rank among the four lipopeptides (FSL-1, FSL-2, MALP-2, Pam2CSK4) (TLR2): most potent TLR2 agonist; IFN-γ-forming OVA257-264-specific CD8+ T cell response (BALB/c mice [3]): slightly elevated; IFN-γ-forming OVA323-339-specific CD4+ T cell response (BALB/c mice [3]): slightly elevated
5 | Pam2Cys-SEFAHPRHG [LP2-2] | significantly elevated | elevated | significantly augment | significantly improved | significantly improved | elevated | elevated | more increased SEAP activity than Pam2CSK4 | significantly increased | significantly increased | higher level | serum OVA-specific IgG response compared with Pam2CSK4 (BALB/c mice [2]): more robust; OVA-specific sIgA in BALF compared with Pam2CSK4 (BALB/c mice [2]): higher level
6 | Pam2Cys-SEFQATYAP [LP2-3] |  | elevated |  |  |  |  |  | more increased SEAP activity than Pam2CSK4 | significantly increased | significantly increased |  | serum OVA-specific IgG response compared with Pam2CSK4 (BALB/c mice [2]): more robust
7 | Pam2Cys-SHYAPLPDS [LP1-34] | significantly elevated |  | significantly augment | significantly improved | significantly improved | elevated | elevated | more increased SEAP activity than Pam2CSK4 | significantly increased | significantly increased | higher level | ability of BALF and nasal wash to inhibit RBD interaction with ACE2 (RBD-ACE2 interaction; n=5, Figures 9C, D): improved; levels of IL-12 from BMDCs compared with Pam2CSK4 (BMDCs [6]): higher levels; OVA-specific sIgA in BALF compared with Pam2CSK4 (BALB/c mice [2]): higher level; ability to enhance the level of RBD-specific mucosal sIgA and IgG compared with Pam2CSK4 (BALB/c mice [4]; intranasal rRBD plus lipopeptide, n=5): stronger; rank of RBD-specific IgG2a response among LP1-34, LP2-2 and Pam2CSK4 (BALB/c mice [4]; n=5, Figure 8D): highest
8 | Pam2Cys-SKHANNTHA [LP1-14, novel synthetic lipopeptide] |  |  |  |  |  |  |  | more increased SEAP activity than Pam2CSK4 |  |  |  | cytotoxicity on BMDCs (MTT) (BMDCs [7]): slightly cytotoxic
9 | Pam2Cys-SLARRNDTN [LP1-30, novel synthetic lipopeptide] |  |  |  |  |  |  |  | more increased SEAP activity than Pam2CSK4 | significantly increased | significantly increased | higher level | levels of IL-12 from BMDCs compared with Pam2CSK4 (BMDCs [6]): higher levels; anti-lipopeptide IgG antibodies in sera (BALB/c mice [2]; OVA+LP1-30 group, ELISA, n=5, Figure S4): did not reach statistical significance; stimulating effect on costimulatory molecule expression of BMDCs compared with Pam2CSK4 (BMDCs [8]): more potent stimulating effect
